Laboratory results as given in patent publication US7879542B2, “Methylated gene biomarkers for detecting cancer” (The Johns Hopkins University, priority 2003, dated 2011).

Columns and labels:
[1] = test system: SPARC mRNA expression; assay: 5Aza-dC / TSA treatment of pancreatic cancer cell lines harboring SPARC methylation, SPARC mRNA by RT-PCR; format: cell-based, human
Method: (§1) Four μg of total RNA was reverse-transcribed using Superscript II (Invitrogen). The SPARC RT-PCR reaction was performed under the condition as follow: 95° C. for 5 minutes; then 28 cycles of 95° C. for 20 seconds, 63° C. for 20 seconds, and 72° C. for 20 seconds; and a final extension of 4 minutes at 72° C. Primer sequences were 5′-AAGATCCATGAGAATGAGAAG-3′ (forward) (SEQ ID NO: 11) and 5′-AAA AGC GGG TGG TGC AAT G-3′ (reverse) (SEQ ID NO: 12). To check the integrity of mRNA, glyceraldehyde-3-phosphate dehydrogenase (GAPDH) was also amplified in the same PCR condition. For semiquantitative analysis, the RT-PCR was performed with primers for SPARC and GAPDH in duplex reactions, and range of linear amplification for both genes was examined with serial PCR cycles to determine the optimal cycle. The relative intensity of SPARC mRNA expression was then corrected for variable RNA recovery using the corresponding GAPDH mRNA measurement as a surrogate for total mRNA.
Eight pancreatic cancer cell lines (AsPC1, BxPC3, Capan2, CFPAC1, Hs766T, MiaPaCa2, PL3, and PL12) were treated with 5Aza-dC. Cells in log phase growth were seeded in T-75 culture flasks. After overnight incubation, the cells were exposed continuously to 5Aza-dC (1 μM) for 4 days, with a change of drug and culture medium every 24 hours.
To confirm that DNA methylation is a mechanism for the silencing of SPARC, we treated 8 pancreatic cancer cell lines harboring SPARC methylation with the demethylating agent 5Aza-dC.

[2] = test system: SPARC gene expression in pancreatic cancer cells; settings: pancreatic cancer cells treated with 5Aza-dC; Sato et al., manuscript submitted; cited from earlier work
[3] = test system: SPARC mRNA expression in fibroblasts (panc-f3); assay: Effect of TGF-β on SPARC expression in fibroblasts (semiquantitative RT-PCR); format: cell-based, human; settings: TGF-β 5 ng/ml, 24 hours
Method: as §1
(§2) Because several growth factors such as TGF-β are known to induce the SPARC expression in fibroblasts (Wrana et al., 1991; Reed et al., 1994), and because TGF-β is one of the major secreted proteins highly expressed by pancreatic cancer cells (Friess et al., 1993), we examined the effect of TGF-β on SPARC expression in fibroblasts (panc-f3). […]

[4] = test system: SPARC mRNA expression in Panc1; assay: Effect of TGF-β on SPARC mRNA expression in pancreatic cancer cell lines; format: cell-based, human; settings: TGF-β 5 ng/ml, data not shown
Method: as §1, §2

[5] = test system: SPARC mRNA expression in AsPC1; assay: as above; format: cell-based, human; settings: TGF-β 5 ng/ml, data not shown
Method: as §1, §2

[6] = test system: Panc1 cells; assay: Effect of exogenous SPARC on proliferation of pancreatic cancer cells (cell count by hemacytometer); format: cell-based, human; settings: SPARC 10 μg/ml, 72 hours
Method: (§3) We treated two pancreatic cancer cell lines (AsPC1 and Panc1) with exogenous SPARC. Cells in log phase growth were seeded at a density of 1×10^4 cells/well in 24-well plates. After overnight incubation, cells were treated with or without human platelet SPARC protein (10 μg/ml) for 72 hours, and the number of cells were counted by hemacytometer in three independent wells.
(§4) The effect of exogenous SPARC protein on growth of pancreatic cancer cells in vitro was also examined. We treated two pancreatic cancer cell lines (AsPC1 and Panc1) with purified SPARC protein and counted the number of cells after 72 hours.

[7] = test system: AsPC1 cells; assay: as above; format: cell-based, human; settings: SPARC 10 μg/ml, 72 hours
Method: as §3, §4

In the case of `Nc1ncn([C@H]2C[C@H](O)[C@@H](CO)O2)c(=O)n1` [5Aza-dC, 5-Aza-2′-deoxycytidine], the “SPARC mRNA expression after treatment (RT-PCR)” value (“SPARC mRNA expression … (RT-PCR)” for short) ([1]; 8 pancreatic cancer cell lines harboring SPARC methylation, 5Aza-dC 1 μM, 4 days) is given as “restored in 7 of the 8 cell lines”, the “SPARC mRNA expression … (RT-PCR)” value ([1]; Hs766T cell line) is given as “did not restore the SPARC expression” and the “induction of SPARC gene expression (oligonucleotide microarrays)” value [2] is given as no less than 5 fold.

With `CC(/C=C/C(=O)NO)=C\[C@@H](C)C(=O)c1ccc(N(C)C)cc1` [trichostatin A (TSA), trichostatin A] the “SPARC mRNA expression … (RT-PCR)” value ([1]; Hs766T cell line) was “did not induce the SPARC expression”.

In the case of “TGF-β: human recombinant transforming growth factor (TGF)-β1 purchased from Sigma”, the “increase in SPARC mRNA expression” value [3] is reported as ~3,3 fold, the “increase in SPARC mRNA expression” value [4] is reported as ~1,5 fold and the “SPARC transcript after treatment” value [5] is reported as “remained undetectable”.

B1: SPARC: Purified human platelet SPARC protein purchased from Calbiochem (protein, UniProt P09486 18-303, looked up)
SPARC: APQQEALPDETEVVEETVAEVTEVSVGANPVQVEVGEFDDGAEETEEEVVAENPCQNHHCKHGKVCELDENNTPMCVCQDPTSCPAPIGEFEKVCSNDNKTFDSSCHFFATKCTLEGTKKGHKLHLDYIGPCKYIPPCLDSELTEFPLRMRDWLKNVLVTLYERDEDNNLLTEKQKLRVKKIHENEKRLEAGDHPVELLARDFEKNYNMYIFPVHWQFGQLDQHPIDGYLSHTELAPLRAPLIPMEHCTTRFFETCDLDNDKYIALDEWAGCFGIKQKDIDKDLVI
In the case of B1, the growth inhibition ([6]; P<0.0001) is reported as roughly 30%, the cell number ([6]; mean±SD, untreated 5.0±0.4) is reported as 3.5±0.4 ×10^4 cells and the growth suppression ([7]; P=0.001) is reported as roughly 27%. For the same molecule, the cell number ([7]; mean±SD, untreated 5.8±0.8) was 4.2±0.3 ×10^4 cells.
